Laboratory results reported in patent publication US20120058989A1, “ANTIBACTERIAL FLUOROQUINOLONE ANALOGS” (Achaogen, Inc., priority 2008, published 2012).

Key:
Test in all cases: MIC, CLSI broth microdilution
Type in all cases: cell-based
[1] = test system: A. baumannii AABA1009 (Fluoroquinolone-resistant); conditions: Table 2
In short: (§1)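 Test compounds were diluted two-fold at 2× strength in Mueller Hinton Broth, then combined 1:1 with saline-suspended bacteria from an overnight agar colony to reach 5×10^5 CFU/mL. Incubation followed at 35° C. for 20 hours in ambient air, per CLSI reference methods.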

[2] = test system: A. baumannii AABA1065 (Fluoroquinolone-susceptible); conditions: Table 2
In short: as §1

[3] = test system: E. coli AECO001 (Fluoroquinolone susceptible, ATCC25922); conditions: Table 2, 35° C., 20 hours
In short: as §1

[4] = test system: E. coli AECO066 (Fluoroquinolone-resistant); conditions: Table 2
In short: as §1

[5] = test system: P. aeruginosa APAE001 (Fluoroquinolone-susceptible, ATCC27853); conditions: Table 2
In short: as §1

[6] = test system: P. aeruginosa APAE054 (Fluoroquinolone-resistant); conditions: Table 2
In short: as §1

[7] = test system: S. aureus ASAU001 (Fluoroquinolone-susceptible, ATCC29213); conditions: Table 2
In short: as §1

[8] = test system: S. aureus ASAU1031 (Fluoroquinolone-resistant); conditions: Table 2
In short: as §1

[9] = test system: S. pneumoniae ASPN001 (Fluoroquinolone-susceptible, ATCC49619); conditions: Table 2
In short: as §1

[10] = test system: S. pneumoniae ASPN1027 (Fluoroquinolone-resistant); conditions: Table 2
In short: as §1

## NC[C@H]1C[C@@H]2CC=Cc3c(c(F)cc4c(=O)c(C(=O)O)cn(C5CC5)c34)N2C1.O=C(O)C(F)(F)F [20/14, (7aS,9R)-9-(Aminomethyl)-4-cyclopropyl-12-fluoro-1-oxo-4,7,7a,8,9,10-hexahydro-1H-pyrrolo[1′,2′:1,7]azepino[2,3-h]quinoline-2-carboxylic acid trifluoroacetate]
[1]
  MIC AABA 1009: C (MIC's of greater than 8.0 μg/mL = C)
[2]
  MIC AABA 1065: A (MIC's of 1.0 μg/mL or less = A)
[3]
  MIC AECO 001: A (MIC's of 1.0 μg/mL or less = A)
[4]
  MIC AECO 066: C (MIC's of greater than 8.0 μg/mL = C)
[5]
  MIC APAE 001: B (MIC's of greater than 1.0 μg/mL to 8.0 μg/mL = B)
[6]
  MIC APAE 054: C (MIC's of greater than 8.0 μg/mL = C)
[7]
  MIC ASAU 001: A (MIC's of 1.0 μg/mL or less = A)
[8]
  MIC ASAU 1031: C (MIC's of greater than 8.0 μg/mL = C)
[9]
  MIC ASPN 001: A (MIC's of 1.0 μg/mL or less = A)
[10]
  MIC ASPN 1027: C (MIC's of greater than 8.0 μg/mL = C)

## NC[C@H]1C[C@@H]2CCCc3c(c(F)cc4c(=O)c(C(=O)O)cn(C5CC5)c34)N2C1.O=C(O)C(F)(F)F [20/16, (7aS,9R)-9-(Aminomethyl)-4-cyclopropyl-12-fluoro-1-oxo-4,5,6,7,7a,8,9,10-octahydro-1H-pyrrolo[1′,2′:1,7]-azepino[2,3-h]quinoline-2-carboxylic acid trifluoroacetate]
[1]
  MIC AABA 1009: C (MIC's of greater than 8.0 μg/mL = C)
[2]
  MIC AABA 1065: A (MIC's of 1.0 μg/mL or less = A)
[3]
  MIC AECO 001: A (MIC's of 1.0 μg/mL or less = A)
[4]
  MIC AECO 066: C (MIC's of greater than 8.0 μg/mL = C)
[5]
  MIC APAE 001: B (MIC's of greater than 1.0 μg/mL to 8.0 μg/mL = B)
[6]
  MIC APAE 054: C (MIC's of greater than 8.0 μg/mL = C)
[7]
  MIC ASAU 001: A (MIC's of 1.0 μg/mL or less = A)
[8]
  MIC ASAU 1031: C (MIC's of greater than 8.0 μg/mL = C)
[9]
  MIC ASPN 001: A (MIC's of 1.0 μg/mL or less = A)
[10]
  MIC ASPN 1027: C (MIC's of greater than 8.0 μg/mL = C)

## O=C(O)c1cn(C2CC2)c2c3c(c(F)cc2c1=O)N1C(=O)CC[C@H]1COC3 [21/9, (3aS)-13-Cyclopropyl-8-fluoro-6,10-dioxo-3a,4,5,6,10,13-hexahydro-1H,3H-pyrrolo[2′,1′:3,4]oxazepino-[5,6-h]quinoline-11-carboxylic acid]
[1]
  MIC AABA 1009: C (MIC's of greater than 8.0 μg/mL = C)
[2]
  MIC AABA 1065: C (MIC's of greater than 8.0 μg/mL = C)
[3]
  MIC AECO 001: B (MIC's of greater than 1.0 μg/mL to 8.0 μg/mL = B)
[4]
  MIC AECO 066: C (MIC's of greater than 8.0 μg/mL = C)
[5]
  MIC APAE 001: C (MIC's of greater than 8.0 μg/mL = C)
[6]
  MIC APAE 054: C (MIC's of greater than 8.0 μg/mL = C)
[7]
  MIC ASAU 001: B (MIC's of greater than 1.0 μg/mL to 8.0 μg/mL = B)
[8]
  MIC ASAU 1031: C (MIC's of greater than 8.0 μg/mL = C)
[9]
  MIC ASPN 001: C (MIC's of greater than 8.0 μg/mL = C)
[10]
  MIC ASPN 1027: C (MIC's of greater than 8.0 μg/mL = C)

## NC[C@@H]1CC2CC=Cc3c(c(F)cc4c(=O)c(C(=O)O)cn(C5CC5)c34)N2C1.O=C(O)C(F)(F)F (stereo partly drawn) [22/17, (9S)-9-(Aminomethyl)-4-cyclopropyl-12-fluoro-1-oxo-4,7,7a,8,9,10-hexahydro-1H-pyrrolo-[1′,2′:1,7]azepino[2,3-h]quinoline-2-carboxylic acid trifluoroacetate]
[1]
  MIC AABA 1009: C (MIC's of greater than 8.0 μg/mL = C)
[2]
  MIC AABA 1065: B (MIC's of greater than 1.0 μg/mL to 8.0 μg/mL = B)
[3]
  MIC AECO 001: B (MIC's of greater than 1.0 μg/mL to 8.0 μg/mL = B)
[4]
  MIC AECO 066: C (MIC's of greater than 8.0 μg/mL = C)
[5]
  MIC APAE 001: B (MIC's of greater than 1.0 μg/mL to 8.0 μg/mL = B)
[6]
  MIC APAE 054: C (MIC's of greater than 8.0 μg/mL = C)
[7]
  MIC ASAU 001: A (MIC's of 1.0 μg/mL or less = A)
[8]
  MIC ASAU 1031: C (MIC's of greater than 8.0 μg/mL = C)
[9]
  MIC ASPN 001: B (MIC's of greater than 1.0 μg/mL to 8.0 μg/mL = B)
[10]
  MIC ASPN 1027: C (MIC's of greater than 8.0 μg/mL = C)

## O=C(O)c1cn(C2CC2)c2c3c(c(F)cc2c1=O)N1C(=O)CC[C@H]1CC=C3 [23/12, (7aS)-4-Cyclopropyl-12-fluoro-1,10-dioxo-4,7,7a,8,9,10-hexahydro-1H-pyrrolo[1′,2′:1,7]azepino[2,3-h]quino-line-2-carboxylic acid]
[1]
  MIC AABA 1009: C (MIC's of greater than 8.0 μg/mL = C)
[2]
  MIC AABA 1065: C (MIC's of greater than 8.0 μg/mL = C)
[3]
  MIC AECO 001: C (MIC's of greater than 8.0 μg/mL = C)
[4]
  MIC AECO 066: C (MIC's of greater than 8.0 μg/mL = C)
[5]
  MIC APAE 001: C (MIC's of greater than 8.0 μg/mL = C)
[6]
  MIC APAE 054: C (MIC's of greater than 8.0 μg/mL = C)
[7]
  MIC ASAU 001: B (MIC's of greater than 1.0 μg/mL to 8.0 μg/mL = B)
[8]
  MIC ASAU 1031: C (MIC's of greater than 8.0 μg/mL = C)
[9]
  MIC ASPN 001: C (MIC's of greater than 8.0 μg/mL = C)
[10]
  MIC ASPN 1027: C (MIC's of greater than 8.0 μg/mL = C)

## O=C(O)c1cn(C2CC2)c2c3c(c(F)cc2c1=O)N1C(=O)CC[C@H]1CCC3 [23/14, (7aR)-4-Cyclopropyl-12-fluoro-1,10-dioxo-4,5,6,7,7a,8,9,10-octahydro-1H-pyrrolo[1′,2′:1,7]azepino[2,3-h]quinoline-2-carboxylic acid]
[1]
  MIC AABA 1009: C (MIC's of greater than 8.0 μg/mL = C)
[2]
  MIC AABA 1065: C (MIC's of greater than 8.0 μg/mL = C)
[3]
  MIC AECO 001: C (MIC's of greater than 8.0 μg/mL = C)
[4]
  MIC AECO 066: C (MIC's of greater than 8.0 μg/mL = C)
[5]
  MIC APAE 001: C (MIC's of greater than 8.0 μg/mL = C)
[6]
  MIC APAE 054: C (MIC's of greater than 8.0 μg/mL = C)
[7]
  MIC ASAU 001: C (MIC's of greater than 8.0 μg/mL = C)
[8]
  MIC ASAU 1031: C (MIC's of greater than 8.0 μg/mL = C)
[9]
  MIC ASPN 001: C (MIC's of greater than 8.0 μg/mL = C)
[10]
  MIC ASPN 1027: C (MIC's of greater than 8.0 μg/mL = C)

## N[C@H]1C[C@H]2CC=Cc3c(ccc4c(=O)c(C(=O)O)cn(C5CC5)c34)N2C1 [25/14, (7aR,9S)-9-amino-4-cyclopropyl-1-oxo-4,7,7a,8,9,10-hexahydro-1H-pyrrolo[1′,2′:1,7]azepino[2,3-h]quinoline-2-carboxylic Acid]
[1]
  MIC AABA 1009: C (MIC's of greater than 8.0 μg/mL = C)
[2]
  MIC AABA 1065: A (MIC's of 1.0 μg/mL or less = A)
[3]
  MIC AECO 001: A (MIC's of 1.0 μg/mL or less = A)
[4]
  MIC AECO 066: C (MIC's of greater than 8.0 μg/mL = C)
[5]
  MIC APAE 001: B (MIC's of greater than 1.0 μg/mL to 8.0 μg/mL = B)
[6]
  MIC APAE 054: C (MIC's of greater than 8.0 μg/mL = C)
[7]
  MIC ASAU 001: A (MIC's of 1.0 μg/mL or less = A)
[8]
  MIC ASAU 1031: C (MIC's of greater than 8.0 μg/mL = C)
[9]
  MIC ASPN 001: A (MIC's of 1.0 μg/mL or less = A)
[10]
  MIC ASPN 1027: B (MIC's of greater than 1.0 μg/mL to 8.0 μg/mL = B)

## N[C@@H]1CCN2c3c(F)cc4c(=O)c(C(=O)O)cn(C5CC5)c4c3C=NC[C@H]12.O=C(O)C(F)(F)F [26/16, (3aR,4R)-4-Amino-13-cyclopropyl-8-fluoro-10-oxo-3a,4,5,6,10,13-hexahydro-3H-pyrrolo[2′,1′:3,4][1,4]diazepino[5,6-h]quinoline-11-carboxylic acid trifluoroacetate]
[1]
  MIC AABA 1009: C (MIC's of greater than 8.0 μg/mL = C)
[2]
  MIC AABA 1065: B (MIC's of greater than 1.0 μg/mL to 8.0 μg/mL = B)
[3]
  MIC AECO 001: A (MIC's of 1.0 μg/mL or less = A)
[4]
  MIC AECO 066: C (MIC's of greater than 8.0 μg/mL = C)
[5]
  MIC APAE 001: B (MIC's of greater than 1.0 μg/mL to 8.0 μg/mL = B)
[6]
  MIC APAE 054: C (MIC's of greater than 8.0 μg/mL = C)
[7]
  MIC ASAU 001: B (MIC's of greater than 1.0 μg/mL to 8.0 μg/mL = B)
[8]
  MIC ASAU 1031: C (MIC's of greater than 8.0 μg/mL = C)
[9]
  MIC ASPN 001: B (MIC's of greater than 1.0 μg/mL to 8.0 μg/mL = B)
[10]
  MIC ASPN 1027: C (MIC's of greater than 8.0 μg/mL = C)
